Peptide text beside a SMILES is read from it.
What was measured:
[1] = target: PepTSo, peptide transporter from Shewanella oniendensis (Shewanella oniendensis (so in the source)); assay: MST
AtNRT1.1 [2] = target: AtNRT1.1 (Arabidopsis thaliana, UniProt Q05085, T101D); assay: microscale thermophoresis; type: binding
AtNRT1.1 [3] = target: AtNRT1.1 (Arabidopsis thaliana, UniProt Q05085); assay: biochemical
PepTSo = PepTSo (Shewanella oneidensis, UniProt Q8EKT7); assay: microscale thermophoresis; type: binding
AtNRT1.1 [4] = target: T1, AtNRT1.1 (Arabidopsis thaliana, UniProt Q05085); assay: microscale thermophoresis; type: binding
T1 sequence (Q05085 1-590): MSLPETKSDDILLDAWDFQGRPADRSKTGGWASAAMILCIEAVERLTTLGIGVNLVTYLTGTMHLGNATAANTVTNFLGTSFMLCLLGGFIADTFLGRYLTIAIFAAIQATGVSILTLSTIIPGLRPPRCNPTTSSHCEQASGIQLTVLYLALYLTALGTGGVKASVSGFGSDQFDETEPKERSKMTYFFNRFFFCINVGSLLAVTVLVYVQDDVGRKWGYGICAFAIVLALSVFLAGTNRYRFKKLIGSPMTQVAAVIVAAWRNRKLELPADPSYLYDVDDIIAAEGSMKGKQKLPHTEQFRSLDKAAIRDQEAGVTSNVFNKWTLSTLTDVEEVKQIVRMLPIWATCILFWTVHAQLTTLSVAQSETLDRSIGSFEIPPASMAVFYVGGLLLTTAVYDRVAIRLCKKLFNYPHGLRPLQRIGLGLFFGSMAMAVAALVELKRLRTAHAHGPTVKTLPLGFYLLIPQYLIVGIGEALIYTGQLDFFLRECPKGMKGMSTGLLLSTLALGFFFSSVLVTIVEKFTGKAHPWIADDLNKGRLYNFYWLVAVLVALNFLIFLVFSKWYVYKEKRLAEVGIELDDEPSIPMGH

Sequence of AtNRT1.1 (Arabidopsis thaliana, UniProt Q05085, T101D) (Q05085 whole entry T101D): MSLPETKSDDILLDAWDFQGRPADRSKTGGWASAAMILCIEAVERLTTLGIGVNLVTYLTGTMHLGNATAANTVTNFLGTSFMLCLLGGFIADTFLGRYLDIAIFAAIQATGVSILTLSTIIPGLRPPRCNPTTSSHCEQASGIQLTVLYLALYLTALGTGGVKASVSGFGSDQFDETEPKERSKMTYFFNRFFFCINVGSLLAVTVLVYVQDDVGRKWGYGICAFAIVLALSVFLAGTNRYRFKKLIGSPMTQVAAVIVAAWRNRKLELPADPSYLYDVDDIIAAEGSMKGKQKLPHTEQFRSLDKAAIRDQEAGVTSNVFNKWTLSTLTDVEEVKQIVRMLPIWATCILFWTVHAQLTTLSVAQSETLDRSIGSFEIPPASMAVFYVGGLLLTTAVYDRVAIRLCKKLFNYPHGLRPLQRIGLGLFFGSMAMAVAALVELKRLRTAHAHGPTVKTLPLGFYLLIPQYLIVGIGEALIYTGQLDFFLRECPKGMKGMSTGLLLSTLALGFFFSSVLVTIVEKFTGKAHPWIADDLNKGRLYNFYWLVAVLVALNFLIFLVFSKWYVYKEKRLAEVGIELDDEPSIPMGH

di-peptide Ala-Ala
Kd [1]: 35 µM

O=[N+]([O-])O [nitrate]
Kd (AtNRT1.1 [2]): 1000 ± 120 µM
Kd (AtNRT1.1 [3]): 1000 ± 150 µM

C[C@H](N)C(=O)N[C@@H](C)C(=O)O [Ala-Ala] (H-Ala-Ala-OH)
Kd (PepTSo): ~35 µM

[O-][Cl+2]([O-])O [chlorate]
Kd (AtNRT1.1 [4]): ~5000 µM

Reference: article PMC3982047 (Nature, 2014)
